Experimental data from patent publication US9644002B2, “Allosteric modulators of EGFR and constitutively active mutants” (YALE UNIVERSITY, priority 2013, dated 2017).
“Also recorded” adds a separate entry of the source. Bridge positions count the residues as written; N and C are the ends. Square brackets hold non-standard residues; d marks the D form. Ends that are not written are not given here. R8 = C=CCCCCCC[C@@](C)(N)C(=O)O; S5 = C=CCCC[C@](C)(N)C(=O)O

How the values were obtained:
[1] = molecular target: EGFR (Homo sapiens, UniProt P00533); assay: Immunoblot of EGFR phosphorylation in A431 cells; type: cell-based; conditions: 10 μM, Akt and Erk1/2 positions
Description: A431 cells were treated with 10 μM of the ligand shown for 2 hours, stimulated with 10 ng/mL EGF, then lysed, immunoblotted, and visualized. Plots illustrate the increase or decrease in the intensity of the indicated phospho-protein band between treated and untreated cells. Error bars representing standard error of the mean over at least 4 trials.
Activation of EGFR upon growth factor binding leads to a well characterized pattern of Tyr and Ser/Thr phosphorylation events that initiate downstream signaling networks (Olayioye, et al., 2000, EMBO J., 19, 3159). Molecules that block growth factor binding to the extracellular domain, or ATP binding to the intracellular kinase domain, inhibit the phosphorylation of both EGFR and downstream factors such as Erk and Akt (Yarden, et al., 2012, Nat. Rev. Cancer, 12, 553). Immunoblots were used to evaluate whether the effects of JM-A-derived ligands on the viability of EGFR-dependent cell lines correlated with their effects on EGFR phosphorylation and the activation of downstream factors. Specifically, phosphorylation was probed at EGFR tyrosines 845, 1045, 1068, 1086, and 1173, as well as for phospho-Akt (Ser473) and phospho-Erk1/2 (T202/Y204) (FIG. 19).

[2] = tested on: A431, H2030, H3255, H1975 and SK-N-MC cells; assay: Cell viability across the cell line panel; type: cell-based; conditions: for effect on cell viability: all cell lines tested, 18 h incubation
Excerpt: Error bars show standard error of the mean.

[3] = tested on: EGFR CCH-1 juxtamembrane coiled coil; assay: Bipartite tetracysteine display (ReAsH, TIRF) of intra-dimer coiled coil formation; type: cell-based; conditions: CHO cells; for change of EGF-induced ReAsH fluorescence: EGFR CCH-1, 1 μM ligand 1 hour, 100 ng/mL EGF
Description: FIG. 21 is a graph depicting the results of example experiments conducted to monitor EGFR intra-dimer coiled coil formation using TIRF and bipartite tetracysteine display. CHO cells were transiently transfected with EGFR CCH-1, treated with 1 μM of the indicated ligand for 1 hour, stimulated with 100 ng/mL EGF for 30 minutes, and labeled with ReAsH (Scheck et al., 2012, ACS Chem Biol, 7: 1367). […] Error bars represent standard error of the mean. *p<0.05, **p<0.01, ***p<0.001, ****p<0.0001, one-way ANOVA with Bonferroni post-analysis accounting for multiple comparisons.
Experiments were conducted using CHO cells expressing an EGFR variant (CCH-1) with a cysteine pair within the JM-A whose location supports ReAsH binding and fluorescence upon EGF-induced coiled coil assembly 24. […] CHO cells transiently expressing the EGFR variant CCH-1 on the cell surface were exposed to native and hydrocarbon-stapled peptides, stimulated with EGF, incubated with ReAsH, and the fluorescence increase due to ReAsH quantified using total internal reflectance fluorescence microscopy (TIR-FM). […] Identical results were observed when cells were treated first with EGF and then with the indicated peptides. None of the peptides tested had any effect on the extent of ReAsH fluorescence in the absence of EGF. […] This work validates the juxtamembrane segment as a viable allosteric target for inhibitor design.

[4] = molecular target: T1, wtEGFR (Homo sapiens, UniProt P00533); assay: Sequestration of EGFR from CHO-K1 lysates by biotinylated peptides on streptavidin beads; type: binding; conditions: 25 μM biotinylated peptide, 1 hour
T1 construct: expressed in transfected cells; host or cells: CHO-K1 (transient transfection; lysate used)
Description: CHO-K1 lysates were treated with 25 μM of each biotinylated peptide shown for 1 hour, then incubated with streptavidin-coated beads overnight. Sequestered proteins were eluted, electrophoresed, and immunoblotted to detect EGFR. Band intensities were measured using ImageJ (Schneider et al., 2012, Nat. Meth., 9: 671).
Two additional experiments were performed to evaluate whether the E1^S-induced viability changes and decreases in EGFR and Erk/Akt phosphorylation resulted from a direct interaction with the EGFR JM segment. […] Each biotinylated analog (25 μM) was incubated for 1 hour with lysates from wtEGFR-expressing cells, and then incubated with Mag-Sepharose Streptavidin Beads overnight. A mock reaction lacking a biotinylated analog was run alongside. After washing, the sequestered proteins were eluted, resolved by SDS-PAGE (10%), probed with a commercial anti-EGFR antibody, visualized using a horseradish peroxidase-tagged mouse anti-rabbit secondary antibody, and quantified with chemiluminescent detection. […] Little or no EGFR was sequestered when no biotinylated peptide was added (mock), providing additional support for a direct interaction between the hydrocarbon-stapled peptide E1^S and the juxtamembrane segment of wild type EGFR.

## E1ΔL^S: hydrocarbon-stapled VRKRZARRAAQXRELVE (SEQ ID NO: 19; E1ΔL), leucines replaced by alanine (VRKR[R8]ARRAAQ[S5]RELVE; staple 5-12)
[1]
  pattern of phosphorylation changes over all probed positions: little or no decrease in phosphorylation at any position
[2]
  effect on cell viability: more modest effects on cell viability
[3]
  change of EGF-induced ReAsH fluorescence: significant loss in ReAsH fluorescence
[3]; EGFR CCH-1, lower concentration than 1 μM
  change of EGF-induced ReAsH fluorescence at a lower concentration: effectively reduced the ReAsH signal

## JM-WT: unmodified EGFR JM-A peptide VRKRTLRRLLQERELVE (SEQ ID NO: 1)
[2]
  effect on cell viability: none of the cells are sensitive; also recorded: inability to decrease the viability
[3]
  change of EGF-induced ReAsH fluorescence: unchanged

## TE-64562: polypeptide containing the EGFR juxtamembrane segment fused to HIV Tat (Boran et al., 2012) (YGRKKRRQRRRVRKRTLRRLLQERELVE) [reference compound]
[1]
  pattern of phosphorylation changes over all probed positions: paralleled
[2]; 72 h incubation
  effect on cell viability after 72 h: potency is mitigated significantly
[2]
  effect on cell viability: moderate decreases in viability

## ^BE1ΔL^S: biotinylated analog of E1ΔL^S (VRKR[R8]ARRAAQ[S5]RELVE; staple 5-12; also: biotinylated, site of biotin not given here)
[4]
  sequestration of full length wild type EGFR from cell lysates: sequestered; also recorded: sequester wtEGFR

## ^BJM-WT: biotinylated analog of JM-WT (VRKRTLRRLLQERELVE; also: biotinylated)
[4]
  sequestration of full length wild type EGFR from cell lysates: did not

## ^BT1^S: biotinylated analog of T1^S (VRKRT[S5]RRL[S5]QERELVE; staple 6-10 (inferred); also: biotinylated)
[4]
  sequestration of full length wild type EGFR from cell lysates: did not
